Results reported in ChEMBL document CHEMBL1146330, “Acyclic, orally bioavailable ketone-based cathepsin K inhibitors” (Bioorg Med Chem Lett, 2007).
≈ marks a conversion by molar mass, not a printed value.

Experiments:
[1] = Total clearance in Han Wistar rat; format: ADME, organism-based; details: in vivo
[2] = Volume of distribution at steady state in Han Wistar rat; format: ADME, organism-based; details: in vivo, read-out: Vdss
[3] = Apparent permeability across MDCK cells; format: ADME, cell-based, Canis lupus familiaris; details: dog
[4] = target: T1, Cathepsin K (Homo sapiens, UniProt P43235); assay: Inhibition of human recombinant cathepsin K
T1 sequence (P43235 whole entry): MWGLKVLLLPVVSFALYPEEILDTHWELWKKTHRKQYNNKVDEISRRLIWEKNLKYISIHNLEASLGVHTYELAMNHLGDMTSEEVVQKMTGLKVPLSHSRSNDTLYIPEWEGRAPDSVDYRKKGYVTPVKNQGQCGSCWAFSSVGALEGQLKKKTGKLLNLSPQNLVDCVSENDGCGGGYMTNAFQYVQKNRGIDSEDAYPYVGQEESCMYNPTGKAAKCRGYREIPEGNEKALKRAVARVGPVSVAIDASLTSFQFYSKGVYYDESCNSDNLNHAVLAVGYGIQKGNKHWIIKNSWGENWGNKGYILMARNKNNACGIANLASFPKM

[5] = Terminal elimination half life in iv dosed Han Wistar rat; format: ADME, organism-based; details: in vivo
[6] = Oral bioavailability in Han Wistar rat; format: ADME, organism-based; details: in vivo
[7] = target: Cathepsin B (Homo sapiens, UniProt P07858); assay: Inhibition of human recombinant cathepsin B
[8] = Inhibition of human recombinant cathepsin L
[9] = target: Cathepsin S (Homo sapiens, UniProt P25774); assay: Inhibition of human recombinant cathepsin S
[10] = Solubility in fasted state simulated intestinal fluid at pH 6.8; format: physicochemical
[11] = species: Homo sapiens; assay: Selectivity for human recombinant cathepsin K over human recombinant cathepsin L

Chain of Cathepsin S (P25774 whole entry): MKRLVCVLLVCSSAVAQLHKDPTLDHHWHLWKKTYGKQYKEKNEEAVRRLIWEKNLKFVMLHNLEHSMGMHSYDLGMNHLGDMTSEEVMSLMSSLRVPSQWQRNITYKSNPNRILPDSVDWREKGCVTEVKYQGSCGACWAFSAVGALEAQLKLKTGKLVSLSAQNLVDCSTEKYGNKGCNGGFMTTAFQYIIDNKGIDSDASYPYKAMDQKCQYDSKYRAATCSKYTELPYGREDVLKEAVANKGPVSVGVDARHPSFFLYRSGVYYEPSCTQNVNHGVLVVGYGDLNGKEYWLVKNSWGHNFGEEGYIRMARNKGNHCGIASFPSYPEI

For `CCCC[C@H](NC(=O)O[C@H](Cn1ccc(C(F)(F)F)n1)C(C)(C)C)C(=O)CNS(=O)(=O)c1ccccn1`, the clearance [1] was 21 mL/min/kg, the Vd [2] was 0.46 L/kg and the Papp [3] was 34 ×10⁻⁶ cm/s. For the same molecule, the IC50 [4] was 32 nM, the half-life [5] was 24 min and the bioavailability [6] was 20%.

Work on `CCCC[C@H](NC(=O)O[C@H](Cn1ccc(-c2ccncc2)n1)C(C)(C)C)C(=O)CNS(=O)(=O)c1ccccn1` yielded a clearance [1] of 16 mL/min/kg, an IC50 [7] of 13 nM and a Vd [2] of 1.7 L/kg. For the same molecule, the Papp [3] was 6.8 ×10⁻⁶ cm/s, the IC50 [8] was 38 nM and the IC50 [4] was 3.8 nM. The half-life [5] was 120 min, the IC50 [9] was 11 nM and the bioavailability [6] was 100%. The solubility [10] was 60 µg/mL (≈ 108 µM).

Molecule `CCCC[C@H](NC(=O)O[C@H](Cn1ccc(-c2ccc(C(F)(F)F)cc2)n1)C(C)(C)C)C(=O)CNC(=O)N1CCOCC1` has an IC50 [4] greater than 250 nM.

For `CCCC[C@H](NC(=O)O[C@H](Cn1cnc(-c2ccc(C(F)(F)F)cc2)c1)C(C)(C)C)C(=O)CNS(=O)(=O)c1ccccn1`, the Ratio IC50 [11] was greater than 100, the clearance [1] was 47 mL/min/kg and the IC50 [7] was 130 nM. For the same molecule, the Vd [2] was 1.6 L/kg, the Papp [3] was 19 ×10⁻⁶ cm/s and the IC50 [8] was 1100 nM. It also gave an IC50 [4] of 6.4 nM, a half-life [5] of 67 min and an IC50 [9] of 10 nM. It also gave a bioavailability [6] of 22% and a solubility [10] of 40 µg/mL (≈ 64.1 µM).

Molecule `CCCC[C@H](NC(=O)O[C@H](Cn1ccc(-c2ccc(C(F)(F)F)cc2)n1)C(C)(C)C)C(=O)C(=O)Nc1ccn[nH]1` has an IC50 [7] of 20 nM, a Vd [2] of 1.6 L/kg and a Papp [3] of 9.1 ×10⁻⁶ cm/s. For the same molecule, the IC50 [8] was 8.7 nM, the IC50 [4] was 0.072 nM and the half-life [5] was 320 min. For the same molecule, the IC50 [9] was 0.21 nM, the bioavailability [6] was 42% and the solubility [10] was 110 µg/mL (≈ 196 µM).

With `C[C@H](NC(=O)O[C@H](Cn1cnc2cc(Cl)c(Cl)cc21)C(C)(C)C)C(=O)CNS(=O)(=O)c1ccccn1` the IC50 [7] was 71 nM, the IC50 [8] was 38 nM and the IC50 [4] was 1.4 nM. For the same molecule, the IC50 [9] was 7.9 nM.

With `CCCC[C@H](NC(=O)O[C@H](Cn1ccc(-c2ccc(C(F)(F)F)cc2)n1)C(C)(C)C)C(=O)CNc1cccc(F)n1` the Ratio IC50 [11] was greater than 100, the IC50 [7] was 68 nM and the IC50 [8] was greater than 250 nM. It also gave an IC50 [4] of 2.1 nM and an IC50 [9] of 19 nM.

In the case of `C[C@H](NC(=O)O[C@H](Cn1ccc(C(F)(F)F)n1)C(C)(C)C)C(=O)CNS(=O)(=O)c1ccccn1`, the IC50 [4] is reported as 300 nM.

`CC(C)(C)[C@@H](Cn1ccc(-c2ccc(C(F)(F)F)cc2)n1)OC(=O)NCC(=O)CNS(=O)(=O)c1ccccn1` gave an IC50 [4] of 65 nM.

`CC(C)C[C@H](NC(=O)c1cc2ccccc2o1)C(=O)N[C@@H](C)C(=O)CNS(=O)(=O)c1ccccn1` gave an IC50 [7] of 59 nM, an IC50 [4] of 7.5 nM and a half-life [5] of 33 min. It also gave an IC50 [9] of 20 nM.

`CCCC[C@H](NC(=O)O[C@H](Cn1cc(-c2ccc(C(F)(F)F)cc2)cn1)C(C)(C)C)C(=O)CNS(=O)(=O)c1ccccn1` showed a Ratio IC50 [11] greater than 100, an IC50 [7] of 72 nM and an IC50 [8] of 7100 nM. It also gave an IC50 [4] of 7.6 nM and an IC50 [9] of 26 nM.

`CCCC[C@H](NC(=O)O[C@H](Cn1ccc(-c2cccnc2)n1)C(C)(C)C)C(=O)CNS(=O)(=O)c1ccccn1` showed an IC50 [7] of 79 nM, an IC50 [8] of 100 nM and an IC50 [4] of 5.5 nM. For the same molecule, the IC50 [9] was 15 nM.

`CCCC[C@H](NC(=O)O[C@H](Cn1ccc(-c2ccc(C(F)(F)F)cc2)n1)C(C)(C)C)C(=O)CNS(=O)(=O)c1ccccn1` gave a clearance [1] of 26 mL/min/kg, an IC50 [7] of 170 nM and a Vd [2] of 1.8 L/kg. For the same molecule, the Papp [3] was 16 ×10⁻⁶ cm/s, the IC50 [8] was greater than 250 nM and the IC50 [4] was 4 nM. It also gave a half-life [5] of 120 min, an IC50 [9] of 35 nM and a bioavailability [6] of 21%. For the same molecule, the solubility [10] was 41 µg/mL (≈ 65.7 µM).

For `C[C@H](NC(=O)O[C@H](Cn1ccc(-c2ccc(C(F)(F)F)cc2)n1)C(C)(C)C)C(=O)CNS(=O)(=O)c1ccccn1`, the clearance [1] was 82 mL/min/kg, the IC50 [7] was 310 nM and the Vd [2] was 1.8 L/kg. For the same molecule, the Papp [3] was 30 ×10⁻⁶ cm/s, the IC50 [8] was greater than 250 nM and the IC50 [4] was 18 nM. For the same molecule, the half-life [5] was 32 min, the IC50 [9] was 64 nM and the bioavailability [6] was 27%. It also gave a solubility [10] of 97 µg/mL (≈ 167 µM).

Work on `CCCC[C@H](NC(=O)O[C@H](Cn1cnc2cc(Cl)c(Cl)cc21)C(C)(C)C)C(=O)CNS(=O)(=O)c1ccccn1` yielded a clearance [1] of 31 mL/min/kg, an IC50 [7] of 40 nM and a Vd [2] of 1.3 L/kg. For the same molecule, the Papp [3] was 15 ×10⁻⁶ cm/s, the IC50 [8] was 16 nM and the IC50 [4] was 3.2 nM. It also gave a half-life [5] of 46 min, an IC50 [9] of 10 nM and a bioavailability [6] of 32%. The solubility [10] was 28 µg/mL (≈ 46.8 µM).
